Experimental data from the supplement of paper PMC10307832.

How the values were obtained:
Assay in all cases: relative viability (nuclei count vs DMSO), 5 days (fraction); higher = more cells survive
CX-5461 + Bortezomib = compound: Cc1cnc(CNC(=O)c2c(=O)c3ccc(N4CCCN(C)CC4)nc3n3c2sc2ccccc23)cn1 [CX-5461] + CC(C)C[C@H](NC(=O)[C@H](Cc1ccccc1)NC(=O)c1cnccn1)B(O)O [Bortezomib] (partner 0.002 µM)
In short: (§1)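 Cells from lung cancer lines were seeded into 1536-well plates and, one day later, dosed by pin tool. Treatments were either a single drug or a fixed dose of an anchor drug with five library-drug doses (not always all listed) in √10 steps. After 5 days, nuclei were stained in a one-step fixation (final 0.05% Triton X-100, 1% formaldehyde, 1 ug/ml Hoechst) and counted on 4× images, and relative viability is the treated-to-vehicle nuclei ratio, as the median of duplicate plates.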

IMD-0354 + Foretinib = compound: O=C(Nc1cc(C(F)(F)F)cc(C(F)(F)F)c1)c1cc(Cl)ccc1O [IMD-0354] + COc1cc2c(Oc3ccc(NC(=O)C4(C(=O)Nc5ccc(F)cc5)CC4)cc3F)ccnc2cc1OCCCN1CCOCC1 [Foretinib] (partner 0.25 µM)
In short: as §1

CX-5461 + Dasatinib = compound: Cc1cnc(CNC(=O)c2c(=O)c3ccc(N4CCCN(C)CC4)nc3n3c2sc2ccccc23)cn1 [CX-5461] + Cc1nc(Nc2ncc(C(=O)Nc3c(C)cccc3Cl)s2)cc(N2CCN(CCO)CC2)n1 [Dasatinib] (partner 0.075 µM)
In short: as §1

IMD-0354 + Trametinib = compound: O=C(Nc1cc(C(F)(F)F)cc(C(F)(F)F)c1)c1cc(Cl)ccc1O [IMD-0354] + CC(=O)Nc1cccc(-n2c(=O)n(C3CC3)c(=O)c3c(Nc4ccc(I)cc4F)n(C)c(=O)c(C)c32)c1 [Trametinib] (partner 0.02 µM)
In short: as §1

Cell Line | relative viability (CX-5461 + Bortezomib; first compound 0.01 µM) | relative viability (CX-5461 + Bortezomib; first compound 0.03162 µM) | relative viability (CX-5461 + Bortezomib; first compound 0.1 µM) | relative viability (CX-5461 + Bortezomib; first compound 0.3162 µM) | relative viability (CX-5461 + Bortezomib; first compound 1 µM) | relative viability (IMD-0354 + Foretinib; first compound 0.04 µM) | relative viability (IMD-0354 + Foretinib; first compound 0.1265 µM) | relative viability (IMD-0354 + Foretinib; first compound 0.4 µM) | relative viability (IMD-0354 + Foretinib; first compound 1.265 µM) | relative viability (IMD-0354 + Foretinib; first compound 4 µM) | relative viability (CX-5461 + Dasatinib; first compound 0.01 µM) | relative viability (CX-5461 + Dasatinib; first compound 0.03162 µM) | relative viability (CX-5461 + Dasatinib; first compound 0.1 µM) | relative viability (CX-5461 + Dasatinib; first compound 0.3162 µM) | relative viability (CX-5461 + Dasatinib; first compound 1 µM) | relative viability (IMD-0354 + Trametinib; first compound 0.04 µM) | relative viability (IMD-0354 + Trametinib; first compound 0.1265 µM) | relative viability (IMD-0354 + Trametinib; first compound 0.4 µM) | relative viability (IMD-0354 + Trametinib; first compound 1.265 µM) | relative viability (IMD-0354 + Trametinib; first compound 4 µM)
NCI-H23 | 0.939 | 0.964 | 0.854 | 1.06 | 0.404 | 0.969 | 0.955 | 0.49 | 0.265 | 0.232 | 0.75 | 0.892 | 0.834 | 1.03 | 0.5 | 0.456 | 0.344 | 0.28 | 0.144 | 0.162
201T | 1.16 | 1.15 | 1.08 | 1.14 | 1.05 | 1.18 | 1.18 | 1.05 | 0.235 | 0.178 | 0.652 | 0.555 | 0.537 | 0.542 | 0.477 | 0.732 | 0.74 | 0.611 | 0.727 | 0.319
NCI-H460 | 1.15 | 0.995 | 0.16 | 0.233 | 0.0251 | 0.988 | 0.858 | 0.366 | 0.0865 | 0.026 | 0.554 | 0.435 | 0.263 | 0.516 | 0.0464 | 0.196 | 0.173 | 0.0878 | 0.0353 | 0.0199
NCI-H661 | 0.885 | 0.877 | 0.61 | – | 0.639 | 1.06 | 1.01 | 0.681 | 0.295 | 0.24 | 1.06 | 0.863 | 0.9 | – | 0.4 | 0.532 | 0.512 | 0.397 | 0.308 | 0.256
HCC-15 | 1.04 | 1.16 | 1.02 | 1.03 | 0.731 | 1.03 | 0.891 | 0.636 | 0.178 | 0.152 | 0.673 | 0.666 | 0.655 | 0.617 | 0.229 | 0.387 | 0.35 | 0.335 | 0.269 | 0.146
LCLC-103H | 1.1 | 1.13 | 1.11 | 1.02 | 1.07 | 0.745 | 0.865 | 0.45 | 0.335 | 0.216 | 0.527 | 0.583 | 0.384 | 0.609 | 0.53 | 0.703 | 0.703 | 0.521 | 0.602 | 0.315
NCI-H441 | 0.577 | 0.555 | 0.692 | 0.465 | 0.337 | 0.919 | 0.872 | 0.478 | 0.28 | 0.272 | 0.593 | 0.486 | 0.747 | 0.419 | 0.364 | 0.528 | 0.543 | 0.359 | 0.164 | 0.191
EPLC-272H | 0.93 | 0.975 | 0.765 | – | 0.814 | 0.761 | 0.61 | 0.512 | 0.269 | 0.0781 | 0.327 | 0.364 | 0.387 | – | 0.412 | 0.295 | 0.271 | 0.317 | 0.268 | 0.201
